Laboratory results published in article PMC8191290, “Substrate specificities and reaction kinetics of the yeast oligosaccharyltransferase isoforms” (The Journal of Biological Chemistry, 2021).

Biological target: T1, OST3 complex (Saccharomyces cerevisiae, UniProt P39007)
T1 construct: were purified separately from strains expressing only one type of complex; made in house; host or cells: Saccharomyces cerevisiae, BY4742-derived strain ost6::LEU2MX6 OST4-1D4::kanMX6 YEp352-OST3
Assay: In vitro glycosylation assay, kinetic parameters for synthetic LLOs, OST3 complex
Assay type: biochemical
Excerpt: Synthetic LLO substrates all have two GlcNAcs as the sugar moiety, followed by pyrophosphate and lipid moieties (−R) of variable stereochemistry and length, denoted by the carbon chain length. C10, (S)-citronellyl; C15, farnesyl; C20, (S)-citronellylneryl; C25, (S)-citronellylfarnesyl; C90, represents the natural yeast dolichol lipid tail structure where n = 15. Figure modified from Ramirez et al. 2017 ([42]). B, quantification of kinetic parameters for the synthetic LLOs. Reactions were performed with 0.1 μM purified OST3 complex, 25 μM peptide TAMRA-YANATS, and varying concentrations of the different synthetic LLOs. Glycopeptide product was measured by UPLC and turnover rates were determined from the linear initial phase of the reaction. The mean of three reactions is shown and the data were fitted by nonlinear regression according to the Michaelis–Menten formula (R^2 = 0.9842 (LLO C15), 0.9685 (LLO C20), 0.9261 (LLO C25)) using Prism. Error bars indicate standard deviations from the mean (n = 3).
Concentrations of reactive LLO analogs were determined by in vitro glycosylation (see below) by titrating varying amounts of LLO against a known amount of fluorescently labeled peptide. Concentrations of nonreactive LLO analogs were determined by in vitro glycosylation by titrating varying amounts of nonreactive LLO while using known amounts of both fluorescently labeled peptide and active LLO analog.
Reactions were performed in a total volume of 10 μl containing the specified amount of TAMRA-labeled peptide, synthetic LLO analog, 10 mM MnCl2, and purified OST after size-exclusion chromatography in purification buffer (50 mM Hepes, pH 7.5, 150 mM NaCl, 1 mM MgCl2, 1 mM MnCl2, 10% (v/v) glycerol, 0.03% (w/v) DDM, and 0.006% (w/v) CHS). The concentration of OST was calculated using the molecular weight of 280 kDa. The reaction mixture was preincubated at 30 °C for 5 min before adding the peptide to start the reaction that proceeded at 30 °C. Time points were taken such that the reaction was in the linear phase. […]
Samples were analyzed by reverse-phase chromatography using a UPLC Dionex UltiMate 3000 with an Accucore 150-C18 100 × 2.1 mm 2.6 μm column (Thermo Fisher Scientific). One microliter sample (2 pmol of peptide) was injected and measured by isocratic elution using a certain proportion of ACN (15% ACN for peptide TAMRA-DANYTK; 20% ACN for peptide TAMRA-YANATS) in 10 mM KPO4, pH 8.0 buffer so that the glycopeptide and peptide are fully separated and elute within 3 min at a constant flow rate of 0.7 ml/min, with a column temperature of 45 °C. The peptide and glycopeptide were detected through TAMRA fluorescence (excitation wavelength: 546 nm; emission wavelength: 579 nm).
The UPLC profiles were analyzed by integrating the peaks corresponding to the glycopeptide and peptide using Chromeleon 7 (Dionex) and calculating the amount of glycopeptide formed using the following equation, as previously described ([43]): [GP]=PeakareaGP/PeakareaP+PeakareaGP×[P]
[GP] is the concentration of glycopeptide, Peak areaGP/P is the area under the curves measured for the glycopeptide or peptide, respectively, and [P] is the concentration of peptide at the start of the reaction. […] Unless specified otherwise, turnover rates were determined from the initial rates of reaction by taking into account the enzyme concentration in the reaction. […]

## CC(=O)N[C@H]1[C@@H](OP(=O)(O)OP(=O)(O)OC/C=C(\C)CC/C=C(\C)CCC=C(C)C)O[C@H](CO)[C@@H](O[C@@H]2O[C@H](CO)[C@@H](O)[C@H](O)[C@H]2NC(C)=O)[C@@H]1O [LLO C15]
0.1 μM purified OST3 complex, 25 μM TAMRA-YANATS
  kcat/KM: 0.02 min^-1 μM^−s1
0.1 μM purified OST3 complex, 25 μM TAMRA-YANATS, varying LLO (C15 5–200, C20 5–150, C25 2–50 μM), 30 °C, n = 3
  kcat (apparent): 0.0283 ± 0.0017 s⁻¹
0.1 μM purified OST3 complex, 25 μM TAMRA-YANATS, varying LLO (C15 5–200, C20 5–150, C25 2–50 μM), 30 °C, n = 3, read-out: KM (apparent)
  Km: 67.9 ± 6.7 µM
OST3 complex, from apparent KM
  apparent LLO affinity, in words: bound much less efficiently
